Test results reported in ChEMBL document CHEMBL1201862, “PubChem BioAssay data set” (2004).
One block for each compound: values may come before it. Activity calls are given as the source filed them.

What was measured:
[1] = target: Prothrombin (Homo sapiens, UniProt P00734); assay: Thrombin 1536 HTS Dose Response Confirmation. [Related pubchem assays: 1046 (Thrombin 1536 HTS; hits were confirmed in this assay)]; assay type: functional
[2] = tested on: BJ; assay: BJ-TERT-LT-ST fibroblast viability loss – cell-based, RAS-independent, luminescence, dose response (AID 1935); assay type: functional; conditions: Homo sapiens;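 further: BJ fibroblasts immortalized with TERT plus LT and ST oncogenes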
[3] = tested on: BJ; assay: BJ-TERT fibroblast viability loss – cell-based, RAS-independent, luminescence, dose response (AID 1933); assay type: functional; conditions: Homo sapiens
[4] = DRD fibroblast viability loss – cell-based, non-viral oncogenic, luminescence, dose response (AID 1934); assay type: functional; conditions: Homo sapiens
[5] = tested on: BJ; assay: cells; assay type: functional, cell-based; conditions: Homo sapiens
[6] = target: T1, Sentrin-specific protease 6 (Homo sapiens, UniProt Q9GZR1); assay type: functional;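 further: Luminescence-based dose-response confirmatory assay of SENP6 inhibition, following up an ultra-high-throughput screen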
T1 sequence (Q9GZR1 whole entry): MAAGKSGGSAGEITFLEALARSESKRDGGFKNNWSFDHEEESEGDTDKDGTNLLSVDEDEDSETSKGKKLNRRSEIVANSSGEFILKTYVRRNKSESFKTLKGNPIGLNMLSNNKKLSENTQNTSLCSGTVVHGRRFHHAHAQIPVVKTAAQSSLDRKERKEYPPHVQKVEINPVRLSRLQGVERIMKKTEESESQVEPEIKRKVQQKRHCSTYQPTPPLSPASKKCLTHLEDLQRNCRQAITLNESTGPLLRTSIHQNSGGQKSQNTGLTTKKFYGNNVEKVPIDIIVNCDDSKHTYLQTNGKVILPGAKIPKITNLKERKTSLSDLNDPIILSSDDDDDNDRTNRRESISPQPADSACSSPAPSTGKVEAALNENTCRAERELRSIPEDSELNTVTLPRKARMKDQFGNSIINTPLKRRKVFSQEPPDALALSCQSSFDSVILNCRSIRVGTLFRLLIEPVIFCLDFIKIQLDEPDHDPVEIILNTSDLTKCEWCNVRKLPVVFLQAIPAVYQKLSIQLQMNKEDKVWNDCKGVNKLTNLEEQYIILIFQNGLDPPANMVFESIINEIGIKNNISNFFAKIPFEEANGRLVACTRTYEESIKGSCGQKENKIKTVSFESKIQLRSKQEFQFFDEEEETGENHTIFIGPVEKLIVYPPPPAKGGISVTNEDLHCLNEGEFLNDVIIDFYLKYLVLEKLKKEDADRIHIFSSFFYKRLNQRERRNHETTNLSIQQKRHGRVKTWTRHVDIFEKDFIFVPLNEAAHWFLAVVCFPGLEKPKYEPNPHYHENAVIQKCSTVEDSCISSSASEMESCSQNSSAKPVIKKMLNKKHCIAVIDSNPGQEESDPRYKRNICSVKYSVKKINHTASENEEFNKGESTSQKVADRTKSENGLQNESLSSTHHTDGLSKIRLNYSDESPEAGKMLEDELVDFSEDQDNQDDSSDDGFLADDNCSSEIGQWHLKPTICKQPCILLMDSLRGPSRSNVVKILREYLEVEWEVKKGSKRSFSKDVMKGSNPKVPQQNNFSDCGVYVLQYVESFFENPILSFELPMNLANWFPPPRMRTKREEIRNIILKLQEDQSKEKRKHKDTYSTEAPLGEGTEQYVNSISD

[7] = target: Heat shock protein HSP 90-alpha (Homo sapiens, UniProt P07900); assay: Luminescence-based dose response biochemical high throughput screening assay for inhibitors of the Heat Shock Protein 90 (HSP90). [Related pubchem assays: 1831 (Summary AID.), 1846 (Confirmation screen.), 1789 (Primary screen.)]
[8] = target: T2, Sentrin-specific protease 7 (Homo sapiens, UniProt Q9BQF6); assay type: functional;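 further: Luminescence-based dose-response confirmation of ultra-high-throughput screening hits, measuring inhibition of SENP7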
T2 sequence (Q9BQF6 whole entry): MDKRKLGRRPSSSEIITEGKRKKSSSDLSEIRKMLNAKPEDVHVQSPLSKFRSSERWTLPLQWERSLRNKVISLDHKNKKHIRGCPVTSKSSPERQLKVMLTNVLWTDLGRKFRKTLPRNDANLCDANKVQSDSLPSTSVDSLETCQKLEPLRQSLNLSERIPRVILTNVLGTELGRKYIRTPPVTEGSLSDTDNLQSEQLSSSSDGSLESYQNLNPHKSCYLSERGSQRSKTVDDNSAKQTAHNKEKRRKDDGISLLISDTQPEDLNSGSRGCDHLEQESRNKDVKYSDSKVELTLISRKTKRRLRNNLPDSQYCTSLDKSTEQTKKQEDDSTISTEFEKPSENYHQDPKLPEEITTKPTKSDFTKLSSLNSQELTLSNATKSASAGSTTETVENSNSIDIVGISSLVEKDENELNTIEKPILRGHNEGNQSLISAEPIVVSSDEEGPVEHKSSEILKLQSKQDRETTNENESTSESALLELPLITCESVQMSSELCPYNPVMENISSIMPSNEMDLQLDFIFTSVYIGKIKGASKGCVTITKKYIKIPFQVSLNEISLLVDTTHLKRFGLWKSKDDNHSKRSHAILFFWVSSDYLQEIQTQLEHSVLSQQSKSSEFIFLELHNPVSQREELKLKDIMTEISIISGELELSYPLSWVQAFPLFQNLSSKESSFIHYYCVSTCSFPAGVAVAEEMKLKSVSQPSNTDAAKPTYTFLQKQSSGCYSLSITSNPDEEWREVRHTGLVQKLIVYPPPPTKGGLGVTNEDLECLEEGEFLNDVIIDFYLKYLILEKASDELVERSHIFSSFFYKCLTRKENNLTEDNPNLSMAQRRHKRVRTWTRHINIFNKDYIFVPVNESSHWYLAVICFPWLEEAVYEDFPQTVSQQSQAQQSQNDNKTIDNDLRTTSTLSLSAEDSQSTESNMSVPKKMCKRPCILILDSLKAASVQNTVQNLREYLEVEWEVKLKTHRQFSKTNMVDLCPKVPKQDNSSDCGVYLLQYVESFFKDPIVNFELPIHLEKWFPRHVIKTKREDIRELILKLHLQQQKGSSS

[9] = target: T3, Caspase-3 (Homo sapiens, UniProt P42574); assay type: functional;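 further: Dose-response selectivity test against caspase-3 for candidate inhibitors of sentrin-specific proteases (SENPs)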
T3 sequence (P42574 whole entry): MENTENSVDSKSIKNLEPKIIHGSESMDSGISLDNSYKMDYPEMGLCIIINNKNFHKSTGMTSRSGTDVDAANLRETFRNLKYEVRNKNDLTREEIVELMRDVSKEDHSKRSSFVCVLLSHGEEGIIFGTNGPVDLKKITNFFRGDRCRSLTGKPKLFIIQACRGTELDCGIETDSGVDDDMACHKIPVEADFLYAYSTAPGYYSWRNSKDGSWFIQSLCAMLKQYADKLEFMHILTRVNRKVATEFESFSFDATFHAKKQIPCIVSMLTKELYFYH

[10] = target: T4, Sentrin-specific protease 8 (Homo sapiens, UniProt Q96LD8); assay type: functional;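 further: luminescence read-out of SENP8 inhibition, dose-response confirmation following an ultra-high-throughput screen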
T4 sequence (Q96LD8 whole entry): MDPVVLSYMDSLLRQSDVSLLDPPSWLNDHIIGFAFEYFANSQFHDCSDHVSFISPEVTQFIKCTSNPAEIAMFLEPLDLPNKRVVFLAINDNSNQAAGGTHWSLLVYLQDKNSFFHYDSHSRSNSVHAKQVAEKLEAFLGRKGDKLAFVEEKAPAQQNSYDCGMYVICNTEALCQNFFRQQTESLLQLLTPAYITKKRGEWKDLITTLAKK

[11] = target: T5, Aspartyl aminopeptidase (Plasmodium falciparum 3D7, UniProt Q8I2J3); assay: Counterscreen for inhibitors of M1 and M17 aminopeptidases: QFRET-based biochemical high throughput dose response assay for inhibitors of the Plasmodium falciparum M18 Aspartyl Aminopeptidase (PFM18AAP). [Related PubChem assays: 1619 (Screening assay (M17LAP inhibitors).), 1445 (Screening assay (M1AAP inhibitors).)]
T5 sequence (Q8I2J3 whole entry): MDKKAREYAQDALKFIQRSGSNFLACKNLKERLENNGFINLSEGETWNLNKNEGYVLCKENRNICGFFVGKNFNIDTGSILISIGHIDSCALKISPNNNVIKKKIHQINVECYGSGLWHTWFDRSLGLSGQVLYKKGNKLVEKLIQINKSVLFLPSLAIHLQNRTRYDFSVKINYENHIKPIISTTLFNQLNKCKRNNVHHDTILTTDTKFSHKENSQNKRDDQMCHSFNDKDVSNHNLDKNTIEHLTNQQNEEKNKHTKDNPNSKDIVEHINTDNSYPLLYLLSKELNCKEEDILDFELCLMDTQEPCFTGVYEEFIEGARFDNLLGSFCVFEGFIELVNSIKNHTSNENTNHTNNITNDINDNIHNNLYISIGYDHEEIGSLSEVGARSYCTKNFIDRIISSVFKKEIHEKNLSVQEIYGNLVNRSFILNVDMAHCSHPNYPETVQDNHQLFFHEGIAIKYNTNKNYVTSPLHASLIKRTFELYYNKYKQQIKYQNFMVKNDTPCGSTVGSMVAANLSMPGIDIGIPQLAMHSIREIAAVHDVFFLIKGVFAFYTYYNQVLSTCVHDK

[12] = target: Procathepsin L (Homo sapiens, UniProt P07711); assay: CTSL1 protease inhibition – biochemical, QFRET, 1536-well, counter-screen for M1/M17 aminopeptidase inhibitor project, dose response (AID 2214)
Chain of Procathepsin L (P07711 whole entry): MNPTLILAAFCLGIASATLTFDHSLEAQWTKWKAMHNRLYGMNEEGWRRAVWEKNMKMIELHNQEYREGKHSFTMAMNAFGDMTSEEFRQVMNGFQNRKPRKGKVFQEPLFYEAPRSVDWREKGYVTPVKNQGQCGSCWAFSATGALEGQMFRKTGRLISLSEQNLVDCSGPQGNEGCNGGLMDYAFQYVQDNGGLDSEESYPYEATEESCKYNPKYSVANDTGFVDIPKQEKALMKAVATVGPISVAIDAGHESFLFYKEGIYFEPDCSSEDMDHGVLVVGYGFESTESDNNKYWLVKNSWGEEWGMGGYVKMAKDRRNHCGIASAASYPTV

[13] = target: T6, Leucine aminopeptidase (Plasmodium falciparum 3D7, UniProt Q8IL11); assay: P. falciparum M17LAP inhibitors, primary screen, biochemical, fluorogenic H-Leu-NHMec substrate, 1536-well (AID 1619); assay type: functional
T6 sequence (Q8IL11 whole entry): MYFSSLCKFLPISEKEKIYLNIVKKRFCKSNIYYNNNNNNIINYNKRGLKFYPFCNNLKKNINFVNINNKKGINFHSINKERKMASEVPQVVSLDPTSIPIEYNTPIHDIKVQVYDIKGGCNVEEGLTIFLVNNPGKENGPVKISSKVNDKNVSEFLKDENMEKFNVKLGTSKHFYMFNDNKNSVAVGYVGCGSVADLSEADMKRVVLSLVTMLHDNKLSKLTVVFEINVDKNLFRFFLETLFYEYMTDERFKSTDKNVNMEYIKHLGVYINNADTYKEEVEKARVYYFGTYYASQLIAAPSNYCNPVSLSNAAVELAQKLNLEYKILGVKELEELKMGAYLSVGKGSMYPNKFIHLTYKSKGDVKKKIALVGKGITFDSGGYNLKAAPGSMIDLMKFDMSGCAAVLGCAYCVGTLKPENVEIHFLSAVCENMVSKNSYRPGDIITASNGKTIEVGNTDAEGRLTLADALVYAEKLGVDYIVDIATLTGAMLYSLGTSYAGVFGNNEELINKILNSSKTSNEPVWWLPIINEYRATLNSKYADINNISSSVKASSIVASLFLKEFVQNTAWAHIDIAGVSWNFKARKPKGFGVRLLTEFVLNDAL

- IC50 [1]: 0.0029 µM (active)
SMILES: CCC(=O)n1nc(-c2cccnc2)nc1NCc1ccccc1

SMILES: c1ccc2c(CCNc3[nH]cnc4ncnc3-4)c[nH]c2c1
- EC50 [2]: > 75 µM (not active)
- EC50 [3]: 24.4 µM (active)
- EC50 [4]: 30.5 µM (active)
- EC50 [5]: 53.2 µM (active)

- IC50 [1]: > 50 µM (not active)
SMILES: O=C(CCC1CCCN(C(=O)C2(c3ccccc3)CC2)C1)N1CCN(c2ccccn2)CC1 (centres undefined)

- IC50 [6]: 4.42 µM (active)
- IC50 [7]: > 20 µM (not active)
- IC50 [8]: 6.05 µM (active)
- IC50 [9]: 88.1 µM (active)
SMILES: CN1C(=O)S/C(=C/c2ccc(OCc3cccc(C(=O)O)c3)cc2)C1=O
- IC50 [10]: 8.88 µM (active)

- IC50 [11]: > 73.5 µM (not active)
- IC50 [12]: > 59.6 µM (not active)
- IC50 [13]: 3.25 µM (active)
SMILES: Cc1ccc(Nc2nnc(SCC(=O)NC(Cc3c[nH]c4ccccc34)C(=O)O)s2)cc1 (centres undefined)
